For orientation: IC90 means the point of the concentration-response curve where the effect stands at 90%.

≈ marks a conversion by molar mass, not a printed value. Like-named read-outs stand apart in the source and are kept apart here.

Three molecules from patent publication US5726012A, “Rapid, high capacity nucleic acid based assay” (E. I. du Pont de Nemours and Company, priority 1994, dated 1998) can be followed below.

Series [1] concerns HIV RF (HIV-1 RNA) in MT-2 cells. Briefly: HIV-1 RNA microtiter plate compound evaluation assay in HIV-1 infected MT-2 cells (gag capture/reporter probes). In kind it is cell-based, HIV-1 (strain RF). The method, then:
Compounds to be evaluated for antiviral activity were dissolved in DMSO and diluted at least 1:50 in culture medium, to 2× the highest concentration to be tested. Further, three-fold serial dilutions of the compound in culture medium were performed directly in U bottom microtiter plates (Nunc). After compound dilution, MT-2 cells, which had been sub-cultured one day prior to infection, were added to a final concentration of 5×10^5 cells/ml (1×10^5 cells/well). Cells were incubated with compounds in a volume of 150 μl for 30 minutes at 37° C. in a CO2 incubator. For evaluation of antiviral potency, appropriate dilutions of HIV RF virus stock (50 μl) were added to culture wells containing the cells and the dilutions of the compounds to be tested. Eight wells per plate were left uninfected with 50 μl of medium added instead of virus, while eight wells were infected in the absence of any antiviral compound. For evaluation of compound toxicity, parallel plates were cultured without virus infection. After three days of culture at 37° C. in a humidified chamber inside a CO2 incubator, all but 25 μl of medium/well was removed from the HIV infected plates. 37 μl of 5M GED containing the biotinylated capture oligo was added to the remaining medium and settled cells in each well to a final concentration of 3M GED, 50 nM biotinylated capture oligo. Hybridization of the biotinylated capture oligo to HIV-1 RNA in the cell lysate was carried out in the same microplate well by sealing the plate and incubating for 16-20 hours in a 37° C. incubator. 124 μl of distilled water was added to each well to dilute the hybridization reaction three-fold, and 150 μl aliquots of this diluted mixture was transferred to streptavidin coated microtiter plate wells. The biotin oligo-RNA complex solution was incubated with the immobilized streptavidin for two hours at room temperature, after which the plates were washed six times with DuPont ELISA plate wash buffer (phosphate buffered saline (PBS)/0.05% Tween 20) with a Denley plate washer. A second hybridization was carried out by adding 120 μl of hybridization cocktail containing 4× standard saline citrate (0.15M NaCl, 0.015 sodium citrate) (SSC), 0.66% Triton X-100 and 6.66% deionized formamide, 1 mg/ml bovine serum albumin (BSA) and 5 nM `gag` AP reporter oligo to each well. After hybridization for one hour at 37° C., the plate was again washed six times in PBS/0.05% Tween 20. Alkaline phosphatase activity was detected by addition of 100 μl of substrate detection buffer, consisting of: 0.2 mM 4-methylumbelliferyl phosphate (MUBP, JBL Scientific) in 2.5M diethanolamine pH 8.9 (JBL), 10 mM MgCl2, 5 mM Zinc acetate dihydrate, and 5 mM n-hydroxyethyl-ethylene-diamine-triaceticacid. The plates were incubated at 37° C. and the fluorescence produced measured in a microplate fluorometer (Dynateck) exciting at 365 nm and emitting at 450 nm. A standard curve, prepared by adding known amounts of pDAB 72 in vitro RNA transcript to wells containing lysed, uninfected cells, was run on each microtiter plate.
In order to standardize the virus innoculum used in the evaluation of compounds for anti-vital efficacy, a dose response to ddC was determined at several different dilutions of each virus stock to be used. A dilution of each stock of HIV RF virus stock which gaven an IC90 for ddC of 0.2 ug/ml was selected and used in subsequent compound evaluation assays.
The microtiter plate compound evaluation assay described in Example 9 above was employed to evaluate the efficacy of cyclohexamide, di-deoxycytidine (ddC) and XJ104 (N,N'-bis[tert-butoxycarbonyl-valyl]-1,6-diphenyl-2S,5S-diamino-3R,4R-dihydroxy(triphenylphosphine adduct)-hexane) as described in WO91/18866, the disclosure of which is hereby incorporated by reference, utilizing the HIV-1 `gag` capture and reporter probes described in Example 2.
In the figures below the IC90 and TC50 are indicated. […]

Series [2] can be described thus: MTT dye reduction cytotoxicity assay on parallel uninfected MT-2 cultures. In kind it is cell-based, human. Conditions: human. The procedure: (§1) Compounds to be evaluated for antiviral activity were dissolved in DMSO and diluted at least 1:50 in culture medium, to 2× the highest concentration to be tested. Further, three-fold serial dilutions of the compound in culture medium were performed directly in U bottom microtiter plates (Nunc). After compound dilution, MT-2 cells, which had been sub-cultured one day prior to infection, were added to a final concentration of 5×10^5 cells/ml (1×10^5 cells/well). Cells were incubated with compounds in a volume of 150 μl for 30 minutes at 37° C. in a CO2 incubator. For evaluation of antiviral potency, appropriate dilutions of HIV RF virus stock (50 μl) were added to culture wells containing the cells and the dilutions of the compounds to be tested. Eight wells per plate were left uninfected with 50 μl of medium added instead of virus, while eight wells were infected in the absence of any antiviral compound. For evaluation of compound toxicity, parallel plates were cultured without virus infection. After three days of culture at 37° C. in a humidified chamber inside a CO2 incubator, all but 25 μl of medium/well was removed from the HIV infected plates. […] Alkaline phosphatase activity was detected by addition of 100 μl of substrate detection buffer, consisting of: 0.2 mM 4-methylumbelliferyl phosphate (MUBP, JBL Scientific) in 2.5M diethanolamine pH 8.9 (JBL), 10 mM MgCl2, 5 mM Zinc acetate dihydrate, and 5 mM n-hydroxyethyl-ethylene-diamine-triaceticacid. The plates were incubated at 37° C. and the fluorescence produced measured in a microplate fluorometer (Dynateck) exciting at 365 nm and emitting at 450 nm. […]
(§2) In order to assess the potential cytotoxicity of compounds being evaluated for antiviral efficacy, an MTT dye reduction assay was performed at the end of the three day culture period on the parallel, uninfected, but compound treated cultures. […] Solubilized MTT dye product was quantitated using an ELISA microplate reader at 570 nm. […]
A general note: Tetrazolium assays rely on reduction of a dye to a coloured formazan, in cell work by metabolically active cells.

A further series concerns MT-2 cells. The description is as above. Conditions: uninfected MT-2 cells, three days culture; 50% reduction of absorbance at 570 nm in MTT assay; 4320 min. In kind it is cell-based, human. The method, then:
as §1, §2

[3] abbreviates: TC50 to IC90 ratio of greater than 3 regarded as antiviral efficacy.

With `Nc1ccn([C@H]2CC[C@@H](CO)O2)c(=O)n1` [ddC, di-deoxycytidine], in series [1], the “specific anti-viral efficacy (IC90 in RNA assay compared with TC50 in MTT assay)” value was “displays anti-viral efficacy”. The IC90 is 0.13 µg/mL (≈ 0.615 µM) in series [1] (Human immunodeficiency virus 1, MT2, 72 h, HIV RF infected MT-2 cells, three days culture, 90% reduction of HIV-1 RNA, FIGS. 4-6, read-out: IC90 in the RNA assay) and 0.2 µg/mL (≈ 0.947 µM) in series [1] (Human immunodeficiency virus 1, MT2, selected dilution of each HIV RF virus stock, read-out: IC90 for ddC used to standardize virus innoculum). This molecule gave a CC50 at 72 h in series [2] (mt-2 cells) above 50 µg/mL.
Consider “N,N'-bis[tert-butoxycarbonyl-valyl]-1,6-diphenyl-2S,5S-diamino-3R,4R-dihydroxy(triphenylphosphine adduct)-hexane [XJ104]”, for which the “IC90 in the RNA assay” value in series [1] (HIV RF infected MT-2 cells, three days culture, 90% reduction of HIV-1 RNA, FIGS. 4-6) came out at 30 µg/mL. Moreover, in series [1] (setting [3]), the “specific anti-viral efficacy (IC90 in RNA assay compared with TC50 in MTT assay)” value was “no specific anti-viral efficacy is apparent”. In the series on MT-2 cells, this molecule came in with a TC50 of 2 µg/mL.
For `C[C@@H]1C[C@@H]([C@H](O)CC2CC(=O)NC(=O)C2)C(=O)[C@@H](C)C1` [cyclohexamide], the IC90 in series [1] (Human immunodeficiency virus 1, MT2, 72 h, read-out: IC90 in the RNA assay) was 0.45 µg/mL (≈ 1.6 µM). The “specific anti-viral efficacy (IC90 in RNA assay compared with TC50 in MTT assay)” value in series [1] (setting [3]) was “no specific anti-viral efficacy is apparent”. In addition, in series [2] (uninfected MT-2 cells, three days culture, 50% reduction of absorbance at 570 nm in MTT assay, read-out: TC50), the CC50 at 72 h was determined as 0.45 µg/mL (≈ 1.6 µM).
